According to ChEMBL document CHEMBL1649134, “Occurrence of efflux mechanism and cephalosporinase variant in a population of Enterobacter aerogenes and Klebsiella pneumoniae isolates producing extended-spectrum beta-lactamases” (2009):
Values after ≈ are worked out from the molar mass of the structure shown.

Columns and labels:
Klebsiella aerogenes [1] = assay: Antimicrobial activity against multidrug resistant Enterobacter aerogenes isolate 1 by broth dilution method; format: functional
Klebsiella aerogenes [2] = assay: Antimicrobial activity against multidrug resistant Enterobacter aerogenes isolate 2 by broth dilution method; format: functional
Klebsiella aerogenes [3] = assay: Antimicrobial activity against multidrug resistant Enterobacter aerogenes isolate 3 by broth dilution method; format: functional
Klebsiella aerogenes [4] = assay: Antimicrobial activity against multidrug resistant Enterobacter aerogenes isolate 4 by broth dilution method; format: functional
Klebsiella aerogenes [5] = assay: Antimicrobial activity against multidrug resistant Enterobacter aerogenes isolate 5 by broth dilution method; format: functional
Klebsiella aerogenes [6] = assay: Antimicrobial activity against multidrug resistant Enterobacter aerogenes isolate 6 by broth dilution method; format: functional
Klebsiella aerogenes [7] = assay: Antimicrobial activity against multidrug resistant Enterobacter aerogenes isolate 7 by broth dilution method; format: functional
Klebsiella aerogenes [8] = assay: Antimicrobial activity against multidrug resistant Enterobacter aerogenes isolate 8 by broth dilution method; format: functional
Klebsiella aerogenes [9] = assay: Antimicrobial activity against multidrug resistant Enterobacter aerogenes isolate 9 by broth dilution method; format: functional
Klebsiella aerogenes [10] = assay: Antimicrobial activity against multidrug resistant Enterobacter aerogenes isolate 10 by broth dilution method; format: functional
Klebsiella aerogenes [11] = assay: Antimicrobial activity against multidrug resistant Enterobacter aerogenes isolate 11 by broth dilution method; format: functional
Klebsiella aerogenes [12] = assay: Antimicrobial activity against multidrug resistant Enterobacter aerogenes isolate 12 by broth dilution method; format: functional
Klebsiella aerogenes [13] = assay: Antimicrobial activity against multidrug resistant Enterobacter aerogenes isolate 13 by broth dilution method; format: functional
Klebsiella aerogenes [14] = assay: Antimicrobial activity against multidrug resistant Enterobacter aerogenes isolate 14 by broth dilution method; format: functional
Klebsiella aerogenes [15] = assay: Antimicrobial activity against multidrug resistant Enterobacter aerogenes isolate 15 by broth dilution method; format: functional
Klebsiella aerogenes [16] = assay: Antimicrobial activity against multidrug resistant Enterobacter aerogenes isolate 16 by broth dilution method; format: functional
Klebsiella aerogenes [17] = assay: Antimicrobial activity against multidrug resistant Enterobacter aerogenes isolate 17 by broth dilution method; format: functional
Klebsiella aerogenes [18] = assay: Antimicrobial activity against multidrug resistant Enterobacter aerogenes isolate 18 by broth dilution method; format: functional
Klebsiella aerogenes [19] = assay: Antimicrobial activity against multidrug resistant Enterobacter aerogenes isolate 19 by broth dilution method; format: functional
Klebsiella aerogenes [20] = assay: Antimicrobial activity against multidrug resistant Enterobacter aerogenes isolate 20 by broth dilution method; format: functional
Klebsiella aerogenes [21] = assay: Antimicrobial activity against multidrug resistant Enterobacter aerogenes isolate 21 by broth dilution method; format: functional
Klebsiella aerogenes [22] = assay: Antimicrobial activity against multidrug resistant Enterobacter aerogenes isolate 22 by broth dilution method; format: functional
Klebsiella aerogenes [23] = assay: Antimicrobial activity against multidrug resistant Enterobacter aerogenes isolate 23 by broth dilution method; format: functional
Klebsiella aerogenes [24] = assay: Antimicrobial activity against multidrug resistant Enterobacter aerogenes isolate 24 by broth dilution method; format: functional
Klebsiella aerogenes [25] = assay: Antimicrobial activity against multidrug resistant Enterobacter aerogenes isolate 25 by broth dilution method; format: functional
Klebsiella aerogenes [26] = assay: Antimicrobial activity against multidrug resistant Enterobacter aerogenes isolate 26 by broth dilution method; format: functional
Klebsiella aerogenes [27] = assay: Antimicrobial activity against multidrug resistant Enterobacter aerogenes isolate 27 by broth dilution method; format: functional
Klebsiella pneumoniae [28] = assay: Antimicrobial activity against multidrug resistant Klebsiella pneumoniae ATCC 11296 by broth dilution method; format: functional
Klebsiella pneumoniae [29] = assay: Antimicrobial activity against multidrug resistant Klebsiella pneumoniae isolate 1 by broth dilution method; format: functional
Klebsiella pneumoniae [30] = assay: Antimicrobial activity against multidrug resistant Klebsiella pneumoniae isolate 2 by broth dilution method; format: functional
Klebsiella pneumoniae [31] = assay: Antimicrobial activity against multidrug resistant Klebsiella pneumoniae isolate 3 by broth dilution method; format: functional
Klebsiella pneumoniae [32] = assay: Antimicrobial activity against multidrug resistant Klebsiella pneumoniae isolate 4 by broth dilution method; format: functional
Klebsiella pneumoniae [33] = assay: Antimicrobial activity against multidrug resistant Klebsiella pneumoniae isolate 5 by broth dilution method; format: functional
Klebsiella pneumoniae [34] = assay: Antimicrobial activity against multidrug resistant Klebsiella pneumoniae isolate 6 by broth dilution method; format: functional
Klebsiella pneumoniae [35] = assay: Antimicrobial activity against multidrug resistant Klebsiella pneumoniae isolate 7 by broth dilution method; format: functional
Klebsiella pneumoniae [36] = assay: Antimicrobial activity against multidrug resistant Klebsiella pneumoniae isolate 8 by broth dilution method; format: functional
Klebsiella pneumoniae [37] = assay: Antimicrobial activity against multidrug resistant Klebsiella pneumoniae isolate 9 by broth dilution method; format: functional
Klebsiella pneumoniae [38] = assay: Antimicrobial activity against multidrug resistant Klebsiella pneumoniae isolate 10 by broth dilution method; format: functional
Klebsiella pneumoniae [39] = assay: Antimicrobial activity against multidrug resistant Klebsiella pneumoniae isolate 11 by broth dilution method; format: functional
Klebsiella pneumoniae [40] = assay: Antimicrobial activity against multidrug resistant Klebsiella pneumoniae isolate 12 by broth dilution method; format: functional
Klebsiella pneumoniae [41] = assay: Antimicrobial activity against multidrug resistant Klebsiella pneumoniae isolate 13 by broth dilution method; format: functional
Klebsiella pneumoniae [42] = assay: Antimicrobial activity against multidrug resistant Klebsiella pneumoniae isolate 15 by broth dilution method; format: functional
Klebsiella pneumoniae [43] = assay: Antimicrobial activity against multidrug resistant Klebsiella pneumoniae isolate 16 by broth dilution method; format: functional
Klebsiella aerogenes [44] = assay: Antimicrobial activity against multidrug resistant Enterobacter aerogenes ATCC 15038 by broth dilution method; format: functional
Klebsiella aerogenes [45] = assay: Antimicrobial activity against multidrug resistant Enterobacter aerogenes ATCC 15038 harboring pDrive plasmid by broth dilution method; format: functional
Klebsiella aerogenes [46] = assay: Antimicrobial activity against multidrug resistant Enterobacter aerogenes ATCC 15038 harboring pACM204 plasmid by broth dilution method; format: functional
Klebsiella aerogenes [47] = assay: Antimicrobial activity against multidrug resistant Enterobacter aerogenes ATCC 15038 harboring pDrive plasmid expressing ampC gene by broth dilution method; format: functional
Escherichia coli [48] = assay: Antimicrobial activity against multidrug resistant Escherichia coli ATCC 35218 by broth dilution method; format: functional
Escherichia coli [49] = assay: microbe, parasite or virus in culture; details: DH5[alpha]
Description: Antimicrobial activity against multidrug resistant Escherichia coli DH5[alpha] by broth dilution method

Escherichia coli [50] = assay: microbe, parasite or virus in culture; details: DH5[alpha]; remark: listed apart in the source
Description: Antimicrobial activity against multidrug resistant Escherichia coli DH5[alpha] harboring pDrive plasmid by broth dilution method

Escherichia coli [51] = assay: microbe, parasite or virus in culture; details: DH5[alpha]; remark: listed apart in the source
Description: Antimicrobial activity against multidrug resistant Escherichia coli DH5[alpha] harboring pDrive plasmid expressing ampC gene by broth dilution method

Escherichia coli [52] = assay: microbe, parasite or virus in culture; details: DH5[alpha]; remark: listed apart in the source
Description: Antimicrobial activity against multidrug resistant Escherichia coli DH5[alpha] harboring pACM204 plasmid by broth dilution method

Escherichia coli [53] = assay: microbe, parasite or virus in culture; details: ATCC 35218
Description: Antimicrobial activity against multidrug resistant Escherichia coli ATCC 35218 harboring pDrive plasmid by broth dilution method

Escherichia coli [54] = assay: microbe, parasite or virus in culture; details: ATCC 35218; remark: listed apart in the source
Description: Antimicrobial activity against multidrug resistant Escherichia coli ATCC 35218 harboring pDrive plasmid expressing ampC gene by broth dilution method

Klebsiella aerogenes [55] = assay: Inhibition of multidrug resistance efflux pump in Enterobacter aerogenes isolate 6 assessed as increase in intracellular [14C]chloramphenicol accumulation relative to untreated control; format: cell-based
Klebsiella aerogenes [56] = assay: Inhibition of multidrug resistance efflux pump in Enterobacter aerogenes isolate 13 assessed as increase in intracellular [14C]chloramphenicol accumulation relative to untreated control; format: cell-based
Klebsiella aerogenes [57] = assay: Inhibition of multidrug resistance efflux pump in Enterobacter aerogenes isolate 17 assessed as increase in intracellular [14C]chloramphenicol accumulation relative to untreated control; format: cell-based
Klebsiella pneumoniae [58] = assay: Inhibition of multidrug resistance efflux pump in Klebsiella pneumoniae isolate 13 assessed as increase in intracellular [14C]chloramphenicol accumulation relative to untreated control
Klebsiella pneumoniae [59] = assay: Inhibition of multidrug resistance efflux pump in Klebsiella pneumoniae isolate 14 assessed as increase in intracellular [14C]chloramphenicol accumulation relative to untreated control

SMILES: CO/N=C(\C(=O)N[C@@H]1C(=O)N2C(C(=O)[O-])=C(C[N+]3(C)CCCC3)CS[C@H]12)c1csc(N)n1
- MIC (Klebsiella aerogenes [1]): 32 µg/mL (≈ 66.6 µM)
- MIC (Klebsiella aerogenes [2]): 32 µg/mL (≈ 66.6 µM)
- MIC (Klebsiella aerogenes [3]): 16 µg/mL (≈ 33.3 µM)
- MIC (Klebsiella aerogenes [4]): 32 µg/mL (≈ 66.6 µM)
- MIC (Klebsiella aerogenes [5]): 64 µg/mL (≈ 133 µM)
- MIC (Klebsiella aerogenes [6]): 4 µg/mL (≈ 8.32 µM)
- MIC (Klebsiella aerogenes [7]): 64 µg/mL (≈ 133 µM)
- MIC (Klebsiella aerogenes [8]): 64 µg/mL (≈ 133 µM)
- MIC (Klebsiella aerogenes [9]): 32 µg/mL (≈ 66.6 µM)
- MIC (Klebsiella aerogenes [10]): 16 µg/mL (≈ 33.3 µM)
- MIC (Klebsiella aerogenes [11]): 64 µg/mL (≈ 133 µM)
- MIC (Klebsiella aerogenes [12]): 128 µg/mL (≈ 266 µM)
- MIC (Klebsiella aerogenes [13]): 64 µg/mL (≈ 133 µM)
- MIC (Klebsiella aerogenes [14]): 64 µg/mL (≈ 133 µM)
- MIC (Klebsiella aerogenes [15]): 16 µg/mL (≈ 33.3 µM)
- MIC (Klebsiella aerogenes [16]): 64 µg/mL (≈ 133 µM)
- MIC (Klebsiella aerogenes [17]): 64 µg/mL (≈ 133 µM)
- MIC (Klebsiella aerogenes [18]): 32 µg/mL (≈ 66.6 µM)
- MIC (Klebsiella aerogenes [19]): 64 µg/mL (≈ 133 µM)
- MIC (Klebsiella aerogenes [20]): 64 µg/mL (≈ 133 µM)
- MIC (Klebsiella aerogenes [21]): 128 µg/mL (≈ 266 µM)
- MIC (Klebsiella aerogenes [22]): 64 µg/mL (≈ 133 µM)
- MIC (Klebsiella aerogenes [23]): 64 µg/mL (≈ 133 µM)
- MIC (Klebsiella aerogenes [24]): 128 µg/mL (≈ 266 µM)
- MIC (Klebsiella aerogenes [25]): 64 µg/mL (≈ 133 µM)
- MIC (Klebsiella aerogenes [26]): 2 µg/mL (≈ 4.16 µM)
- MIC (Klebsiella aerogenes [27]): 128 µg/mL (≈ 266 µM)
- MIC (Klebsiella pneumoniae [28]): 0.125 µg/mL (≈ 0.26 µM)
- MIC (Klebsiella pneumoniae [29]): 64 µg/mL (≈ 133 µM)
- MIC (Klebsiella pneumoniae [30]): 64 µg/mL (≈ 133 µM)
- MIC (Klebsiella pneumoniae [31]): 64 µg/mL (≈ 133 µM)
- MIC (Klebsiella pneumoniae [32]): 64 µg/mL (≈ 133 µM)
- MIC (Klebsiella pneumoniae [33]): 64 µg/mL (≈ 133 µM)
- MIC (Klebsiella pneumoniae [34]): 16 µg/mL (≈ 33.3 µM)
- MIC (Klebsiella pneumoniae [35]): 64 µg/mL (≈ 133 µM)
- MIC (Klebsiella pneumoniae [36]): 64 µg/mL (≈ 133 µM)
- MIC (Klebsiella pneumoniae [37]): 64 µg/mL (≈ 133 µM)
- MIC (Klebsiella pneumoniae [38]): 64 µg/mL (≈ 133 µM)
- MIC (Klebsiella pneumoniae [39]): 64 µg/mL (≈ 133 µM)
- MIC (Klebsiella pneumoniae [40]): 16 µg/mL (≈ 33.3 µM)
- MIC (Klebsiella pneumoniae [41]): 2 µg/mL (≈ 4.16 µM)
- MIC (Klebsiella pneumoniae [42]): 32 µg/mL (≈ 66.6 µM)
- MIC (Klebsiella pneumoniae [43]): 64 µg/mL (≈ 133 µM)
- MIC (Klebsiella aerogenes [44]): 0.03 µg/mL (≈ 0.0624 µM)
- MIC (Klebsiella aerogenes [45]): 0.25 µg/mL (≈ 0.52 µM)
- MIC (Klebsiella aerogenes [46]): 0.25 µg/mL (≈ 0.52 µM)
- MIC (Klebsiella aerogenes [47]): 32 µg/mL (≈ 66.6 µM)
- MIC (Escherichia coli [48]): 0.03 µg/mL (≈ 0.0624 µM)
- MIC (Escherichia coli [49]): 0.125 µg/mL (≈ 0.26 µM)
- MIC (Escherichia coli [50]): 0.5 µg/mL (≈ 1.04 µM)
- MIC (Escherichia coli [51]): 32 µg/mL (≈ 66.6 µM)
- MIC (Escherichia coli [52]): 0.25 µg/mL (≈ 0.52 µM)
- MIC (Escherichia coli [53]): 0.5 µg/mL (≈ 1.04 µM)
- MIC (Escherichia coli [54]): 32 µg/mL (≈ 66.6 µM)

SMILES: N#CC(C#N)=NNc1cccc(Cl)c1 [CARBONYL CYANIDE M-CHLOROPHENYLHYDRAZONE]
- fold change (FC) (Klebsiella aerogenes [55]): 2
- fold change (FC) (Klebsiella aerogenes [56]): 2
- fold change (FC) (Klebsiella aerogenes [57]): 2
- fold change (FC) (Klebsiella pneumoniae [58]): 2
- fold change (FC) (Klebsiella pneumoniae [59]): 2
